Measurements reported in patent publication US7696245B2, “Fluorescent probe for zinc” (Sekisui Medical Co., Ltd., priority 2003, dated 2010).

What was measured:
[1] = Rate constant of complex formation with zinc ions (stopped-flow); assay type: physicochemical; settings: 1 μM compound, 50 μM zinc ions, 100 mM HEPES buffer (pH 7.4), 25° C.
Experimental: The rate constant of the formation of a complex between zinc ions and each of Compounds 8, 13, 17, and 22 were investigated. Changes with time of fluorescence intensity were measured in a stopped-flow manner after the compound was mixed in 100 mM HEPES buffer (pH 7.4) at 25° C. to adjust the final concentration of the compound to 1 μM and that of zinc ions to 50 μM. The rate constant of complex formation was calculated by using the graph to give 1.6×10^6 M^−1s^−1 for Compound 8, 1.4×10^6 M^−1s^−1 for Compound 13, 7.8×10^4 M^−1s^−1 for Compound 17, and 1.3×10^6 M^−1s^−1 for Compound 22. […] Therefore, it is understood that zinc ions can be detected in a very short period of time, and rapid changes in the concentration of zinc ions can also be detected by using these compounds.

CHO cells = assay: Fluorescence intensity when zinc ions were intracellularly introduced into CHO cells; assay type: cell-based
Experimental: Changes in fluorescence intensity were investigated when zinc ions in various concentrations were intracellularly introduced by using CHO cells. […] After the cells were washed with PBS(−) 3 times, the reagent was added as shown in the following Table 1, and changes in fluorescence intensity were measured.

[2] = read-out: Kd value for zinc ions; cited from earlier work

**Q.** For `O=C(O)c1ccc(NCCNCc2ccccn2)cc1-c1c2ccc(=O)cc-2oc2cc(O)ccc12` [Compound 8], which “rate constant of complex formation” value [1] is on record?
**A.** 1.6e+06 M⁻¹ s⁻¹

**Q.** For `CC(=O)Oc1ccc2c(c1)Oc1cc(OC(C)=O)ccc1C21OC(=O)c2ccc(NCCN(CCc3ccccn3)Cc3ccccn3)cc21` [Compound 28], which “change of fluorescence intensity of dyed cells with elevation of zinc ions introduced” value (CHO cells; CHO cells, 100 μM pyrithione, 0.3-300 μM ZnSO4) is on record?
**A.** increased stepwise

**Q.** For `O=C(O)c1ccc(NCCN(CCc2ccccn2)Cc2ccccn2)cc1-c1c2ccc(=O)cc-2oc2cc(O)ccc12` [Compound 13], which “rate constant of complex formation” value [1] is on record?
**A.** 1.4e+06 M⁻¹ s⁻¹

**Q.** With `O=C(O)c1ccc(NCCN(CCc2ccccn2)CCc2ccccn2)cc1-c1c2ccc(=O)cc-2oc2cc(O)ccc12` [Compound 17] as the molecule, how does the “rate constant of complex formation” value [1] read?
**A.** 78000 M⁻¹ s⁻¹

**Q.** Which results are given for `CC(=O)Oc1ccc2c(c1)Oc1cc(OC(C)=O)ccc1C21OC(=O)c2ccc(NCCN(Cc3ccccn3)Cc3ccccn3)cc21` [ZnAF-2DA, reference compound]?
**A.** zinc ion concentration at which fluorescence intensity reached the plateau (CHO cells; CHO cells dyed with 10 μM probe, 100 μM pyrithione plus ZnSO4): 3 µM; Kd [2]: 2.7 nM

**Q.** Which “rate constant of complex formation” value [1] does the source give for `Cc1cccc(CN(CCNc2ccc(C(=O)O)c(-c3c4ccc(=O)cc-4oc4cc(O)ccc34)c2)Cc2ccccn2)n1` [Compound 22] here?
**A.** 1.3e+06 M⁻¹ s⁻¹
